Data on 24 molecules can be found in ChEMBL document CHEMBL1201862, “PubChem BioAssay data set” (2004).

Usually IC50 stands for the concentration needed to halve the response being measured. The term AC50 denotes the concentration at which the activity in the assay is half-maximal. The EC50 is the midpoint of the concentration-response curve. As a reminder, the CC50 is the concentration at which the toxic effect on the cells reaches its halfway point.

Structures are written as SMILES. The source made the active and inactive calls. Some results are limits rather than exact numbers.

The target of one series is Estrogen receptor beta (Homo sapiens, UniProt Q92731).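 Also: recombinant ER-beta bound to coactivator SRC1 peptide in presence of estradiol agonist; inhibitors block coactivator peptide binding and lower the FRET signal.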
Chain of Estrogen receptor beta (Q92731 whole entry): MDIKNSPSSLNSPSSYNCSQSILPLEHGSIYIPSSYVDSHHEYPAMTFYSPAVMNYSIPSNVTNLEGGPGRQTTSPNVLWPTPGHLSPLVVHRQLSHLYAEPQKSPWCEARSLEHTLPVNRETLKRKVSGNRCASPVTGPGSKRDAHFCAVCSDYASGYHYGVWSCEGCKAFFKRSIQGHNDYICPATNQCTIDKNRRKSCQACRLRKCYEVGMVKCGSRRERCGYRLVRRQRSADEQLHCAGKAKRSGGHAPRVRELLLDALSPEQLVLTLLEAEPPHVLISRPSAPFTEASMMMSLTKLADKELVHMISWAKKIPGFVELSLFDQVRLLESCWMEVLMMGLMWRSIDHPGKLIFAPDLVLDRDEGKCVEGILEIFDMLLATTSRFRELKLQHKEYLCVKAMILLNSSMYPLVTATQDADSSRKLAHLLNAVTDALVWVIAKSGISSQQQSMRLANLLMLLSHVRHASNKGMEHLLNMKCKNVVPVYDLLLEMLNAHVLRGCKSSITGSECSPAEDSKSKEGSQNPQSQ
Another series addresses Cytochrome P450 2C19 (Homo sapiens, UniProt P33261). Put plainly: Cytochrome panel assay with activity outcomes. Panel member name: p450-cyp2c19 Compounds with AC50 equal or less than 10 uM are considered active. It counts as functional. The conditions noted are these: read-out: AC50.
The target in series [1] is T1, Cytochrome P450 3A4 (Homo sapiens, UniProt P08684).
T1 sequence (P08684 whole entry): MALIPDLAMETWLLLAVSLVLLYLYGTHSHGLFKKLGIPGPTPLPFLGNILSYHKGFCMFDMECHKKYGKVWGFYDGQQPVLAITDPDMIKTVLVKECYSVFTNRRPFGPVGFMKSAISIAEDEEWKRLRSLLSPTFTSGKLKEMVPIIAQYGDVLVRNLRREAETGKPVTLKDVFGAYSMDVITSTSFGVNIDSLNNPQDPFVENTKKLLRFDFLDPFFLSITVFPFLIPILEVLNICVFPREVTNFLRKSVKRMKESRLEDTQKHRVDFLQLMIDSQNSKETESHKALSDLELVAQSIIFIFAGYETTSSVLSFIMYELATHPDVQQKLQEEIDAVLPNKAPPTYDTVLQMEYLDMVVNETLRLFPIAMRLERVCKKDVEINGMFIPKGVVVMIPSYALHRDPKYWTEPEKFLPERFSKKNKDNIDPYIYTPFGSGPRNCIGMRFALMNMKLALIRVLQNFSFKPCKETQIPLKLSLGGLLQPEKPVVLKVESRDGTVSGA
The target in the next series is Beta-galactosidase (Escherichia coli, UniProt Q8VNN2). Briefly: PubChem AID 485352. It is filed as functional.
Series [2] addresses T2, Type-1 angiotensin II receptor (Homo sapiens, UniProt P30556).
T2 sequence (P30556 whole entry): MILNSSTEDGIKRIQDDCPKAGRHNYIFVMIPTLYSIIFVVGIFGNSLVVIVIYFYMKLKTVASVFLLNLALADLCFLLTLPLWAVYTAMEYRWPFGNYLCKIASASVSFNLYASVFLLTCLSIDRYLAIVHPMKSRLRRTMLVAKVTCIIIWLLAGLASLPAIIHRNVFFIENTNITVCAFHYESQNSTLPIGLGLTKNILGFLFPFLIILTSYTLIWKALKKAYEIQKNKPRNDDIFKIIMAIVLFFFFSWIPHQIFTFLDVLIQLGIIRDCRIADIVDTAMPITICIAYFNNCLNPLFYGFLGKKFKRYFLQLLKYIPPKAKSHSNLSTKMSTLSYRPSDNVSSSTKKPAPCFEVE
Put plainly: antagonism of angiotensin II type 1 receptor – cell-based, uHTS hits, selectivity assay for APJ receptor antagonist project, dose response (AID 463214).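 Also: antagonist potency against angiotensin II stimulated AT1 response.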 It is filed as functional.

A short description of series [3]: blockers of HIV-1 envelope-mediated cell-cell fusion – cherry-pick, dose response (AID 652057). It counts as functional, cell-based.
Series [4] can be described thus: blockers of HIV-1 ZM109 envelope-driven cell-cell fusion – HeLa effector, CEM target cells, luciferase, cherry-pick, dose response (AID 652058).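 Also: luciferase signal from HIV-1 Env mediated cell-cell fusion of effector and target cells.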 It counts as functional, cell-based.
The nature of series [5]: HIV-1 AD8 envelope cell-cell fusion blockers – cherry-pick, dose response (AID 652062).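 Also: luciferase signal from cell-cell fusion driven by HIV-1 clade B AD8 Env; potency is for inhibitors of fusion seen as a drop in luminescence.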 It is filed as functional, cell-based.
Series [6] in a line: A549 cell cytotoxicity, dose response, cytotoxicity control, plate reader, cherry-pick, antagonist series (AID 743412). It is filed as functional, cell-based.
A short description of series [7]: blockers of bursicon-stimulated LGR2 cAMP reporter – cell-based, HEK293, CRE-luciferase reporter, cherry pick, set 2, dose response (AID 743343).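 Also: transfected cells were stimulated with diluted bursicon conditioned medium after compound addition.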 It is filed as functional. A general note: A reporter such as luciferase makes a cellular process visible.
A short description of series [8]: blockade of melanocortin 4 receptor signaling – cell-based, plate reader, cherry pick, counter-screen for LGR2 antagonist project, dose response (AID 743444).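 Also: transfected HEK 293 cells stimulated with alpha-MSH peptide; potency of inhibitors of the alpha-MSH evoked signal.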 It is filed as functional. A general note: The purpose of a counterscreen is to sort out artefacts and off-target activity.
Series [9] deals with Eukaryotic translation initiation factor 4E (Mus musculus, UniProt P63073). Put plainly: blockers of eIF4G binding by eIF4E – biochemical, TR-FRET, dose response (AID 855).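 Also: potency for disrupting eIF4E binding to eIF4GI seen as loss of FRET.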 It counts as functional. (TR-FRET usually uses a lanthanide donor and a delayed reading to cut background.)
Chain of Eukaryotic translation initiation factor 4E (P63073 whole entry): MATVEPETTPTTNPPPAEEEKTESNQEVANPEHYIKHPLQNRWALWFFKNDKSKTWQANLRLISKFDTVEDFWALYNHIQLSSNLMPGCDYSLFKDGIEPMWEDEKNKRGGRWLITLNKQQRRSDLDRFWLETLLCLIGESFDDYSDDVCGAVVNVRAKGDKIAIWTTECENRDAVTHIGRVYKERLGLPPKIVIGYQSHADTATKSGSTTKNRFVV
The target in series [10] is T3, DNA repair and recombination protein RAD54-like (Homo sapiens, UniProt Q92698).
T3 sequence (Q92698 whole entry): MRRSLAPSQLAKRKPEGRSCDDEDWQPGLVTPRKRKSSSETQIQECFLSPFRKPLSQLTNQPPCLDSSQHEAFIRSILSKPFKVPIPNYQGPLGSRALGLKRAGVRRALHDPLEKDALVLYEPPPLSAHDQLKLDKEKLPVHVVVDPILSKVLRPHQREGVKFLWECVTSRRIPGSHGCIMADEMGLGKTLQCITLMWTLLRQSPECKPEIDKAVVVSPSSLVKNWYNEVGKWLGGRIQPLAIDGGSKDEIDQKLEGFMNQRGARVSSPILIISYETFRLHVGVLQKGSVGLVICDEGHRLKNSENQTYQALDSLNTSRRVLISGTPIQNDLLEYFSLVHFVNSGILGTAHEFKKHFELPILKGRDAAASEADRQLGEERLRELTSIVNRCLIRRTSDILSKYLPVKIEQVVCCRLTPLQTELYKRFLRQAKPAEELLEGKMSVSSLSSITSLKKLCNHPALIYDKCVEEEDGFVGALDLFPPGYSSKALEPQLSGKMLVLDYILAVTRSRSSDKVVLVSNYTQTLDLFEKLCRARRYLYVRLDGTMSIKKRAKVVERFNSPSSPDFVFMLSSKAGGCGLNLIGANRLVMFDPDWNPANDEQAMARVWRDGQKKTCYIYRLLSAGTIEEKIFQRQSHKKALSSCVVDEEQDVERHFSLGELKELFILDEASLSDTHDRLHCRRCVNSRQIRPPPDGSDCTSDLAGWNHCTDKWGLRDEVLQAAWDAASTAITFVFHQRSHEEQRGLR
Put plainly: RAD54 Holliday junction migration blockers – biochemical, fluorescence, cherry-picked samples, dose series, confirmation (AID 651657). It is filed as functional.

The next series deals with Vero. Put plainly: viability of Vero cells under compound – cytotoxicity control for flavivirus capping enzyme inhibitors (AID 588742). It counts as functional. The conditions noted are these: Chlorocebus sabaeus.
Series [11] addresses T4, Voltage-gated N-type calcium channel alpha-1B subunit/Amyloid beta A4 precursor protein-binding family A member 1 (Homo sapiens, UniProt Q00975+Q02410). It counts as protein assay.
Series [12] deals with T4, Voltage-gated N-type calcium channel alpha-1B subunit/Amyloid beta A4 precursor protein-binding family A member 1. It counts as protein assay. This is another data set of the same source.
For series [13], the target named is T1, Cytochrome P450 3A4. This is another data set of the same source.
The next series concerns the target Cytochrome P450 2C9 (Homo sapiens, UniProt P11712).
The target in another series is Paired box protein Pax-8 (Homo sapiens, UniProt Q06710). Put plainly: PAX8 transcriptional activity inhibition in RMG-I – RMG-I cells, luciferase, cherry-pick, dose response (AID 687027).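 Also: luciferase reporter driven by Pax8 target thyroperoxidase promoter measured by SteadyGlo luminescence.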 It counts as functional, cell-based.
The nature of series [14]: OVCAR8 cell viability loss – plate reader, dry powder samples, PAX8 project, dose response (AID 743197). It counts as functional, cell-based. The conditions noted are these: OVCAR-8.

T4 sequence (Q00975 whole entry): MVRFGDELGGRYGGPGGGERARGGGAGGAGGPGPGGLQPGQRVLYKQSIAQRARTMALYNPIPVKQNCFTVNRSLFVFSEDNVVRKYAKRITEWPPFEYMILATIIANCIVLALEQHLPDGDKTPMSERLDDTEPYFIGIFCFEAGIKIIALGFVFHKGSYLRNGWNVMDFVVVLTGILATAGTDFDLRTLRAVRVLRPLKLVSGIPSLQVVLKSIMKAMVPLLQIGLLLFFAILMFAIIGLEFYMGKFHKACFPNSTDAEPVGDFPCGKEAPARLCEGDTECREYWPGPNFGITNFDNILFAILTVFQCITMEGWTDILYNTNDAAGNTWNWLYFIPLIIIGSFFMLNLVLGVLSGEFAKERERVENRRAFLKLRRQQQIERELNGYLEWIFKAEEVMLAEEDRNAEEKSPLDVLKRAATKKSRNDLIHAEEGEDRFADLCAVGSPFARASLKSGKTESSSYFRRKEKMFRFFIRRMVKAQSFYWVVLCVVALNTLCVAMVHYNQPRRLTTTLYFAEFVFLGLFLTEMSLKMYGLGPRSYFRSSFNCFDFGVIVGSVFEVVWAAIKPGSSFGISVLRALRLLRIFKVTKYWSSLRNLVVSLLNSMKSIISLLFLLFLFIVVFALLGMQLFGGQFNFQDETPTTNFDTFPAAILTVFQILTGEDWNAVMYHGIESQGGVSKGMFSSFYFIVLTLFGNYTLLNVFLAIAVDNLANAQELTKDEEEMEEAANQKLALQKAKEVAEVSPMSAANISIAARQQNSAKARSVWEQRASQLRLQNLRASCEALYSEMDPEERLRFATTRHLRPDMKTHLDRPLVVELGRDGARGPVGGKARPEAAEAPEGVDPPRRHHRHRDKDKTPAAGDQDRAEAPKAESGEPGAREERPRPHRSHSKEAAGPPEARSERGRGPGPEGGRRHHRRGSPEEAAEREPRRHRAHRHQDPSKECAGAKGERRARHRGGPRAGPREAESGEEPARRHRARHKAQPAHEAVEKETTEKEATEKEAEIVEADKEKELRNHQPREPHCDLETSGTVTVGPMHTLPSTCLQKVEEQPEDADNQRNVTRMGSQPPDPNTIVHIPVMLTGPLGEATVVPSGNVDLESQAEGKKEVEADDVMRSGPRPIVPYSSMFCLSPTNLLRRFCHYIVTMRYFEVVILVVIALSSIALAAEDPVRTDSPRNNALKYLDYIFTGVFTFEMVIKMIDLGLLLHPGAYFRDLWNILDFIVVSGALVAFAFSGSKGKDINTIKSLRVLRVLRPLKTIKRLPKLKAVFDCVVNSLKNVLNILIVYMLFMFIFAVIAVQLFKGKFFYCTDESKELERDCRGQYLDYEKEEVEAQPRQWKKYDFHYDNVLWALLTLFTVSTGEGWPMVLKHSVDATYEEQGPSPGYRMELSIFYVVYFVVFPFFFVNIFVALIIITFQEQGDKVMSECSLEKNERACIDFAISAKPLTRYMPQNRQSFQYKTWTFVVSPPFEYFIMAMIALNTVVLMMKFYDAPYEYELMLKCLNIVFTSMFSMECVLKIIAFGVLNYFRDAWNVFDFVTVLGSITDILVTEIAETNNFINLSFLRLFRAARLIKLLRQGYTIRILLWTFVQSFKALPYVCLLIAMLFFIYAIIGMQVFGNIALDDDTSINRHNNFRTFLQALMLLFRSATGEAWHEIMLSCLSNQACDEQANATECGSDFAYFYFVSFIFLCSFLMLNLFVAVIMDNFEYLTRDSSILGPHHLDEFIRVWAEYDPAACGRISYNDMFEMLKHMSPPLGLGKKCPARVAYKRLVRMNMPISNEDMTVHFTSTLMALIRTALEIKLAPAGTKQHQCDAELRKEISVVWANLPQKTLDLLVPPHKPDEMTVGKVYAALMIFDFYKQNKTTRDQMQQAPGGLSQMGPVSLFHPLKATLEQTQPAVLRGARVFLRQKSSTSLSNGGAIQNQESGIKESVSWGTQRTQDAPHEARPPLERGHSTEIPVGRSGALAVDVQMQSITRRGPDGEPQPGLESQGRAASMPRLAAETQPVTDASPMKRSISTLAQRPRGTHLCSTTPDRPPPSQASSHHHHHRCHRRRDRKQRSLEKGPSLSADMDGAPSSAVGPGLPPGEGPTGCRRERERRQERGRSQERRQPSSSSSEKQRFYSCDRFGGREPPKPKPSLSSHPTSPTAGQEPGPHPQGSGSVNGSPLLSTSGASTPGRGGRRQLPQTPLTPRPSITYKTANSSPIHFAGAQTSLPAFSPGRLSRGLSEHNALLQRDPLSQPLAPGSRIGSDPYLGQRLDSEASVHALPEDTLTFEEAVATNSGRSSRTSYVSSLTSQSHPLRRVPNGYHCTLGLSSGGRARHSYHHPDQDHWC
T4 sequence (Q02410 whole entry): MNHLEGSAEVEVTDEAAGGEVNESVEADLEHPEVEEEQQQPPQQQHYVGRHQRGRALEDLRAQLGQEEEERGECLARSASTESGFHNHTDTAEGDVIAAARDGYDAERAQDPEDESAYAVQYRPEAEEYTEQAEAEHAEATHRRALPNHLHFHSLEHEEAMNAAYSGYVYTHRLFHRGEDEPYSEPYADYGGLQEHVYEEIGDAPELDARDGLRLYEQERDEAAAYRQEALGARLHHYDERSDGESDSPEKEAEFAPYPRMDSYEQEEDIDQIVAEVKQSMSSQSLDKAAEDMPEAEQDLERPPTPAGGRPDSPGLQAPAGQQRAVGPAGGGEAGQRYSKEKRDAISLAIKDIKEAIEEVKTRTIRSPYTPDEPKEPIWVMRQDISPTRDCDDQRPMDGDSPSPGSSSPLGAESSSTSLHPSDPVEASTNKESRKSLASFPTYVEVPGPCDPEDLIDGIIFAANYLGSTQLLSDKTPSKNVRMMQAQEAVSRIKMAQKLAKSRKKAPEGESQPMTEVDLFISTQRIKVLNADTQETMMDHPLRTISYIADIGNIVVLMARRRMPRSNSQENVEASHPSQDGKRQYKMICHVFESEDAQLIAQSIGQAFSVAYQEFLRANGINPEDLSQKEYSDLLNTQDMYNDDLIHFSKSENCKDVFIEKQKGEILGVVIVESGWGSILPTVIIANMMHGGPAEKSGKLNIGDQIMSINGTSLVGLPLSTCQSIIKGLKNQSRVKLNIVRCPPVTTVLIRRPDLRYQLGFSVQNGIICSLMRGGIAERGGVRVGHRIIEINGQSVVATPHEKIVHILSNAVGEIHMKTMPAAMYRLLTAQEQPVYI
Chain of Cytochrome P450 2C19 (P33261 whole entry): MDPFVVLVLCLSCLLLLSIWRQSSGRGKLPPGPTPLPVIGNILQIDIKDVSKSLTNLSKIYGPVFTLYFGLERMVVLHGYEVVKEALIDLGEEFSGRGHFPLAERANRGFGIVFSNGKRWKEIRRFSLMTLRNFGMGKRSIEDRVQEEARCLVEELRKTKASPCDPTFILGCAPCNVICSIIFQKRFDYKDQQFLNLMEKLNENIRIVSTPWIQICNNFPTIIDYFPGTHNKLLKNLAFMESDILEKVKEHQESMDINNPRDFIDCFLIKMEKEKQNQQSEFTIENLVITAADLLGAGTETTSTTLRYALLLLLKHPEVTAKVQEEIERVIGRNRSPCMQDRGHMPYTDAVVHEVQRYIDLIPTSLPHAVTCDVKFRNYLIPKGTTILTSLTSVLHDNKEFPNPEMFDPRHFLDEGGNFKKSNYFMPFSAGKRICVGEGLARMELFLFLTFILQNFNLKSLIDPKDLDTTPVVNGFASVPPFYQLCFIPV

Consider `COc1ccc(-c2cn3ccsc3n2)cc1`, for which, on Estrogen receptor beta, the IC50 was > 50 µM (not active).
As to `C[C@](O)(c1ccccc1)c1nccc2ccccc12`, the figures for the AC50 on Cytochrome P450 2C19 and on Cytochrome P450 3A4 [1] were 3.98 µM (inconclusive) and “inconclusive”, respectively.
With `Cc1ccc(C(=O)CNc2cc(C)ccc2C)cc1`, the EC50 at Beta-galactosidase was > 40 µM (inactive). The IC50 in series [2] is 9.85 µM (active).
On to `CO[C@@H]1CN(C)C(=O)c2cc(NS(=O)(=O)c3cn(C)cn3)ccc2OC[C@@H](C)N(Cc2ccc(C(F)(F)F)cc2)C[C@H]1C`, for which the values for the AC50 in [3], in series [4] and in [5] were 2.32 µM (active), 1.91 µM (active) and 4.85 µM (active), respectively.
For the molecule `CC(C)CCn1cnc2c(oc3nc4c(cc32)CCCC4)c1=O`, the AC50 in [6] was > 52 µM (inactive); in series [7], 4.92 µM (active); in series [8] it was 3.8 µM (active).
Turning to `CC1CCCC(C)N1C(=O)Nc1cccc(Cl)c1` (stereo not given), the IC50 against Estrogen receptor beta was > 50 µM (not active).
For `COc1ccccc1NC(=O)c1ccc(S(=O)(=O)N(C)C)cc1`, the IC50 in series [9] is > 64 µM (inactive).
`CCN1CCc2c(sc(NC(=O)c3ccc(C(=O)c4ccccc4)cc3)c2C(N)=O)C1`: in [10], the AC50 is 36.6 µM (active).
For the molecule `COc1cc([N+](=O)[O-])ccc1-c1ccc(/C=C2\C(=O)ON=C2c2ccccc2)o1`, the CC50 in the series with Vero is 22.1 µM (active).
As to `CCN(CC)CCCNC(=O)C1CCN(c2ncnc3c2sc2cccc(F)c23)CC1`, in series [10], the AC50 is 52 µM (active).
Turning to `Cc1cc(C)nc(NNS(=O)(=O)c2ccc(F)c(Cl)c2)n1`, the EC50 at Beta-galactosidase is > 40 µM (inactive). Further, the IC50 in [2] is on record as 23.9 µM (not active).
Take `CC1CCC(C(C)C)C(OC(=O)COC(=O)c2ccc(N)cc2)C1` (stereo not given): in series [9], the IC50 was > 64 µM (inactive).
Regarding `Cc1cc(C(=O)O)ccc1-c1ccc(/C=C2\SC(=O)N(CC(=O)Nc3ccc4c(c3)OCO4)C2=O)o1`, the IC50 in [11] is 17.5 µM (active); in series [12], > 50 µM (inactive).
`CCOc1ccccc1N1CCN(C2=C(NS(=O)(=O)c3cccs3)C(=O)c3ccccc3C2=O)CC1`: the CC50 in the series on Vero is > 40 µM (active).
As for `Cc1cc2ccccn2c1C(=O)c1ccc(Cl)cc1`, the AC50 entry on Cytochrome P450 3A4 [1] is listed as “inconclusive”.
On to `O=C(C[C@@H]1C[C@@H]2c3cc(NC(=O)C4CCOCC4)ccc3O[C@@H]2[C@H](CO)O1)NCCc1ccccc1`, for which the half-maximal activity concentration (AC50) in [4] is 37.3 µM (active).
With `O=C(CCNS(=O)(=O)c1cccs1)N1CCCCCC1`, the IC50 in series [9] is > 64 µM (inactive). The values for the AC50 on Cytochrome P450 3A4 [13] and at Cytochrome P450 2C9 were 20 µM (inconclusive) and 28.2 µM (inconclusive), respectively.
As to `Cc1oc(-c2ccc(Cl)cc2)nc1CN1CCC(C(=O)NCc2ccco2)CC1`, the IC50 in [9] was > 64 µM (inactive).
For `O=C(O)c1cccnc1C(=O)O` [QUINOLINIC ACID], the AC50 result on Cytochrome P450 3A4 [1] was “inconclusive”.
Consider `C=CCNC1=NN=C(c2cc(C)n(CC=C)c2C)CS1`, for which the CC50 in the series on Vero is > 40 µM (active).
With `CCOCCCN=C(S)Nc1ccc2nc(N3CCCC3)cc(C)c2c1`, the AC50 in series [10] is 100 µM (inactive).
`Cc1ccc(S(=O)(=O)N(C)C[C@@H]2OCCCC[C@@H](C)Oc3ccc(NS(=O)(=O)c4ccc(Cl)cc4)cc3C(=O)N([C@H](C)CO)C[C@H]2C)cc1`: the AC50 is 4.4 µM (active) on Paired box protein Pax-8 and > 70 µM (inactive) in [14].
With `Cc1ccc(-n2nc(C)c(/C=N/n3c(C)nc4ccccc4c3=O)c2O)cc1`, on Estrogen receptor beta, the IC50 is recorded as > 50 µM (not active).
With `N#Cc1ccc(C2=NC(C(F)(F)F)(C(F)(F)F)c3c(n(Cc4ccco4)c(=O)[nH]c3=O)N2)cc1`, at Cytochrome P450 3A4 [1], the AC50 result is “inconclusive”.
